Results taken from article PMC2936338 (Molecular Cancer, 2010).
Where two headings read alike, the source gives them in different places.

Assays:
U251 glioblastoma cells = experiment: MTT cell viability assay; conditions: read-out: IC50 values (μM), cell viability
Protocol: (§2) Twenty-five μl of 3-(4,5-Dimethylthiazolyl)-2,5-diphenyltetrazolium bromide (MTT, Sigma) was added to each sample and incubated for 3.5 hours. After this, 100 μl of N, N-dimethylformamide (Sigma) solubilization solution was added to each well. […] Half-Maximal inhibitory concentrations (IC50) were determined using Sigma Plot 9.0 software (Systat Software Inc., San Jose, CA).

[1] = tested on: SNU-387 liver cancer cells; experiment: MTT cell viability assay; conditions: read-out: IC50 values (μM), cell viability
Protocol: as §2

[2] = tested on: HCT-116 colorectal cancer cells; experiment: MTT cell viability assay; conditions: read-out: IC50 values (μM), cell viability
Protocol: as §2

[3] = tested on: Cleaved Caspase-3 in HCT-116 cells; experiment: Western blot, HCT-116 cells; format: cell-based, human; conditions: HCT116, positive controls
Protocol: (§1) Membranes were analyzed with enhanced chemiluminescence Plus reagents (GE Healthcare) and scanned with a Storm PhosphorImager (Amersham Pharmacia Biotech Inc.).

[4] = tested on: P-STAT3(Y705) in HCT-116 cells; experiment: Western blot, HCT-116 cells; format: cell-based, human; conditions: HCT116, positive controls
Protocol: as §1

Hep3B liver cancer cells = experiment: MTT cell viability assay; conditions: read-out: IC50 values (μM), cell viability
Protocol: as §2

[5] = tested on: U266 multiple myeloma cells; experiment: MTT cell viability assay; conditions: read-out: IC50 values (μM), cell viability
Protocol: as §2

U87 glioblastoma cells = experiment: MTT cell viability assay; conditions: read-out: IC50 values (μM), cell viability
Protocol: as §2

[6] = tested on: P-STAT3(Y705) in U266 cells; experiment: Western blot, U266 cells; format: cell-based, human; conditions: U266, positive controls
Protocol: as §1

[7] = tested on: Cleaved Caspase-3 in U266 cells; experiment: Western blot, U266 cells; format: cell-based, human; conditions: U266, positive controls
Protocol: as §1

[8] = tested on: ARH77 multiple myeloma cells; experiment: MTT cell viability assay; conditions: read-out: IC50 values (μM), cell viability
Protocol: as §2

[9] = tested on: SW480 colorectal cancer cells; experiment: MTT cell viability assay; conditions: read-out: IC50 values (μM), cell viability
Protocol: as §2

[10] = tested on: SNU-449 liver cancer cells; experiment: MTT cell viability assay; conditions: read-out: IC50 values (μM), cell viability
Protocol: as §2

[11] = tested on: SNU-398 liver cancer cells; experiment: MTT cell viability assay; conditions: read-out: IC50 values (μM), cell viability
Protocol: as §2

[12] = tested on: STAT3 phosphorylation induced by IL-6 in MDA-MB-453 breast cancer cells; experiment: IL-6 induction of STAT3 phosphorylation; format: cell-based, human; conditions: MDA-MB-453, pretreatment 20 μM, IL-6 50 ng/mL 30 min
Protocol: After stimulation with IL-6 (50 ng/mL, Sigma) or IFN-γ (50 ng/mL, Sigma) for 30 min, the cells were harvested and analyzed by western blot.

Compound	IC50 (U251 glioblastoma cells; U251 (G), MTT, 72 hours) [µM]	IC50 ([1]; SNU-387 (L), MTT, 72 hours) [µM]	IC50 ([2]; HCT-116 (C), MTT, 72 hours) [µM]	IC50 (Hep3B liver cancer cells; Hep3B (L), MTT, 72 hours) [µM]	IC50 ([5]; U266 (MM), MTT, 72 hours) [µM]	IC50 (U87 glioblastoma cells; U87 (G), MTT, 72 hours) [µM]	IC50 ([8]; ARH77 (MM), MTT, 72 hours) [µM]	IC50 ([9]; SW480 (C), MTT, 72 hours) [µM]	IC50 ([10]; SNU-449 (L), MTT, 72 hours) [µM]	IC50 ([11]; SNU-398 (L), MTT, 72 hours) [µM]	IC50 (U251 glioblastoma cells; Homo sapiens, U-251, 72 h) [µM]	IC50 ([1]; Homo sapiens, SNU-387, 72 h) [µM]	IC50 ([2]; Homo sapiens, HCT-116, 72 h) [µM]	IC50 (Hep3B liver cancer cells; Homo sapiens, Hep3B, 72 h) [µM]	IC50 ([5]; Homo sapiens, U-266, 72 h) [µM]	IC50 (U87 glioblastoma cells; Homo sapiens, 72 h) [µM]	apoptosis indicated by cleavage of caspase-3 (in words) [3]	effect on STAT3 phosphorylation (in words) [4]	effect on STAT3 phosphorylation (in words) [6]	apoptosis indicated by cleavage of caspase-3 (in words) [7]	other results
O=[N+]([O-])c1ccc2c(c1)S(=O)(=O)C=C2 [Stattic]	0.84	4.3	0.96	17.8	0.99	0.73	2.57	0.43	2.5	3.23							induce apoptosis	inhibit STAT3 phosphorylation	inhibit STAT3 phosphorylation	induce apoptosis	
C[C@H](NC(=O)/C(C#N)=C/c1cccc(Br)n1)c1ccccc1 [WP1066]											5.04	5.17	1.51	10.2	1.38	5.78	induce apoptosis	inhibit STAT3 phosphorylation	inhibit STAT3 phosphorylation	induce apoptosis	IC50 ([8]; Homo sapiens, ARH-77, 72 h): 3.43 µM; IC50 ([9]; Homo sapiens, SW480, 72 h): 1.98 µM; IC50 ([10]; Homo sapiens, SNU-449, 72 h): 3.85 µM; IC50 ([11]; Homo sapiens, SNU-398, 72 h): 4.88 µM
Cc1ccc(S(=O)(=O)OCC(=O)Nc2ccc(C(=O)O)c(O)c2)cc1 [S3I-201]	97.3	> 100	> 100	> 100	8.87	55.1	35.2	> 100	> 100	16.2											

Continued, in another order:

IC50 (U251 glioblastoma cells; U251 (G), MTT, 72 hours) [µM]	IC50 ([1]; SNU-387 (L), MTT, 72 hours) [µM]	IC50 ([2]; HCT-116 (C), MTT, 72 hours) [µM]	IC50 (Hep3B liver cancer cells; Hep3B (L), MTT, 72 hours) [µM]	IC50 ([5]; U266 (MM), MTT, 72 hours) [µM]	IC50 (U87 glioblastoma cells; U87 (G), MTT, 72 hours) [µM]	IC50 ([8]; ARH77 (MM), MTT, 72 hours) [µM]	IC50 ([9]; SW480 (C), MTT, 72 hours) [µM]	IC50 ([10]; SNU-449 (L), MTT, 72 hours) [µM]	IC50 ([11]; SNU-398 (L), MTT, 72 hours) [µM]	IC50 (U251 glioblastoma cells; Homo sapiens, U-251, 72 h) [µM]	IC50 ([1]; Homo sapiens, SNU-387, 72 h) [µM]	IC50 ([2]; Homo sapiens, HCT-116, 72 h) [µM]	IC50 (Hep3B liver cancer cells; Homo sapiens, Hep3B, 72 h) [µM]	IC50 ([5]; Homo sapiens, U-266, 72 h) [µM]	IC50 (U87 glioblastoma cells; Homo sapiens, 72 h) [µM]	Compound	apoptosis indicated by cleavage of caspase-3 (in words) [3]	effect on STAT3 phosphorylation (in words) [4]	effect on STAT3 phosphorylation (in words) [6]	apoptosis indicated by cleavage of caspase-3 (in words) [7]	other results
50.7	> 100	50.5	> 100	9.5	> 100	28.2	86.8	> 100	24.3							N#C/C(=C/c1ccc(O)c(O)c1)C(=O)NCc1ccccc1 [AG490]					
										7.1	25.5	10.9	68.1	4.76	6.91	COc1cc(/C=C/C(=O)CC(=O)/C=C/c2ccc(O)c(OC)c2)ccc1O [Curcumin]					inhibition of the induction of STAT3 phosphorylation by IL-6 [12]: not; IC50 ([8]; Homo sapiens, ARH-77, 72 h): 10.1 µM; IC50 ([9]; Homo sapiens, SW480, 72 h): 10.3 µM; IC50 ([10]; Homo sapiens, SNU-449, 72 h): 9.88 µM; IC50 ([11]; Homo sapiens, SNU-398, 72 h): 5.37 µM
